Experiments:
[1] = tested on: Bdnf exon IV, exon VI, and IX transcripts in primary cortical neurons from BACHD mice; assay: qRT-PCR of Bdnf transcripts in BACHD primary cortical neurons; format: cell-based, mouse; conditions: 0.2 μM for 3.5 days, vs. vehicle
Description: RNA was harvested 5 days later and subjected to qRT-PCR for total Bdnf (coding exon IX) using β-actin and 18S rRNA as reference genes. […] FIG. 3C depicts the schematic of the mouse Bdnf locus and the relative RNA levels of the Bdnf exons. White boxes, non-coding exons; gray box, coding exon. qRT-PCR was performed as in using exon-specific Bdnf primers. […] (FIG. 3G, FIG. 3H) Cortical neurons were co-transduced with lenti viruses expressing Htt and indicated shRNA and processed as in (FIG. 3C). […] (FIG. 3I) Primary cortical neurons from BACHD mice were treated with decitabine (0.2 μM) or vehicle for 3.5 days. qRT-PCR was performed using β-actin as a reference gene. […] Data are presented as mean+SEM.
Mouse primary cortical and striatal neurons from embryonic day (E) 15.5 Swiss Webster mouse fetuses (Taconic) were first plated in the minimal essential medium (MEM) containing 10% FBS, 0.45% glucose, 1 mM sodium pyruvate, 2 mM glutamine, 20 U/ml penicillin and 20 μg/ml streptomycin, for 3 h and then maintained in serum-free Neurobasal medium (Life Technologies) containing NeuroCult™ SM1 neuronal supplement ([…] Technologies), 0.5 mM glutamine and 25 μM glutamate for the first 3 d in a humidified incubator (37° C. in 5% CO2). Half of the medium was replaced with Neurobasal medium with SM1 and 0.5 mM glutamine every 3 days.

Htt-72Q mRNA = assay: qRT-PCR for Htt-72Q (human) mRNA in cortical neurons; format: cell-based, mouse; conditions: RNA at DIV 10, compared to vehicle (DMSO)
Description: (FIG. 8A) DIV 5 mouse primary cortical neurons were infected with Htt-72Q lentivirus and treated with decitabine or vehicle (DMSO). RNA was prepared at DIV 10 and subjected to qRT-PCR analysis for Htt-72Q (human). β-actin and Hprt were used as reference genes. […] (FIG. 8B) DIV 5cortical neurons were infected with Htt lentivirus and treated with decitabine (0.2 μM) or DMSO. Neurons were fixed at DIV 11-12 and subjected to indirect immunofluorescence with a specific mouse monoclonal Htt antibody EM48, which preferentially detects aggregated mutant protein. Nuclei were labeled with Hoechst 33342. Images were captured using an Operetta high-content imaging system (PerkinElmer) with a 20× objective lens. Bar 100 μm. (FIG. 8C) EM48 immunofluorescence intensity in (FIG. 8B) was quantified using an ImageJ-based macro. […] (FIG. 8D) Cortical neurons transduced and processed as in (FIG. 8A) were directly harvested in SDS sample buffer at DIV 10 and subjected to immunoblotting with anti-Htt EM48 monoclonal antibody. Blot was reprobed with anti-β-actin antibody. Representative immunoblot from 3 independent experiments is shown. […]
RNAs were isolated from cultured neurons 5 days after infection of Htt lentiviruses and mouse brain using the RNeasy Plus Mini Kit (QIAGEN) and RNeasy Plus Universal Mini Kit (QIAGEN), respectively. […] Relative mRNA levels were calculated using the ΔΔCq method.

[2] = In vitro stability: preincubation at 37° C. in saline, then MTS neuroprotection assay; conditions: 0.2 mM in saline preincubated at 37° C. for 11 days, then 0.2 μM on Htt-72Q cortical neurons, MTS at DIV 14
Description: Primary cortical neurons grown in a 96-well plate were transduced with Htt-expressing lentiviruses at DIV 5 and assessed for mitochondrial metabolic activity at 9 days post-infection (DIV 14) using 3-(4,5-dimethylthiazol-2-yl)-5-(3-carboxymethoxyphenyl)-2-(4-sulfophenyl)-2H-tetrazolium (MTS) (Promega) per manufacturer's instructions. MTS-reducing activity was normalized for each condition to Htt-25Q lentiviruses treated with vehicle or cotransduced with control RNAi lentivirus (=1). Experiments were performed in 3 or more wells per experiment in three to five independent experiments.

R6/2 HD mouse brain = assay: icv infusion in R6/2 mice, striatal qRT-PCR; format: in vivo; conditions: 0.1 mM in saline icv infusion by osmotic pump from 6 weeks of age, one week, vs. R6/2-saline

Row | Compound | expression of Bdnf exon IV, exon VI, and IX transcripts [1] | levels of Htt-72Q mRNA (Htt-72Q mRNA) | neuroprotective activity after preincubation (in vitro stability) [2] | striatal Penk RNA (R6/2 HD mouse brain) | striatal levels of Drd2, Ppp1r1b, Rasd2, and Adora2a mRNA (R6/2 HD mouse brain)
1 | Nc1ncn([C@H]2C[C@H](O)[C@@H](CO)O2)c(=O)n1 [decitabine, 5-aza-2′-deoxycytidine] | increased expression of Bdnf exon IV, exon VI, and IX transcripts | did not decrease the levels of Htt-72Q mRNA | lost its activity | – | –
2 | Nc1nc(=O)n([C@H]2C[C@H](O)[C@@H](CO)O2)cc1F [FdCyd, 5-fluoro-2′-deoxycytidine] | – | – | – | trend towards increasing | restored
